Results taken from the NIST ThermoML archive (doi:10.1021/je100151b).

Tests used:
[1] = mn = molality of the nth substance listed, in mol/kg; conditions: 101 kPa, Liquid, m1 = 0.25
[2] = refractive index (Na D-line) (dimensionless); mn = molality of the nth substance listed, in mol/kg; conditions: 101 kPa, Liquid, Standard Abbe refractometry, m1 = 0.25

[Cl][Fe][Cl] [ferrous chloride] + O
Conditions	mass density, [1] [kg/m3]	refractive index, [2]
288.15 K	998.9	1.3375
293.15 K	998.2	1.3468
298.15 K	997	1.3559
303.15 K	996	1.3661
308.15 K	995	1.3768
313.15 K	994.5	1.3874
318.15 K	993.8	1.398
